Measured values taken from patent US20230079819A1, “COMPOUNDS AND USES THEREOF” (Foghorn Therapeutics Inc., priority 2019, published 2023).

Experiments:
[1] = molecular target: T1, BRG-1 (Homo sapiens, UniProt P51532); assay: ATPase catalytic activity of BRG-1, ADP-Glo in vitro biochemical assay; conditions: ATPase catalytic activity, 30 nM BRG-1, 400 μM ATP, read-out: BRG1 IP50 (μM)*
T1 construct: made in house; host or cells: High Five insect cells

[2] = molecular target: T2, BRM (Homo sapiens, UniProt P51531); assay: ATPase catalytic activity of BRM, ADP-Glo in vitro biochemical assay; conditions: ATPase catalytic activity, 30 nM BRM, 400 μM ATP, read-out: BRM IP50 (μM)*
T2 construct: made in house; host or cells: High Five insect cells
T2 sequence (P51531 whole entry): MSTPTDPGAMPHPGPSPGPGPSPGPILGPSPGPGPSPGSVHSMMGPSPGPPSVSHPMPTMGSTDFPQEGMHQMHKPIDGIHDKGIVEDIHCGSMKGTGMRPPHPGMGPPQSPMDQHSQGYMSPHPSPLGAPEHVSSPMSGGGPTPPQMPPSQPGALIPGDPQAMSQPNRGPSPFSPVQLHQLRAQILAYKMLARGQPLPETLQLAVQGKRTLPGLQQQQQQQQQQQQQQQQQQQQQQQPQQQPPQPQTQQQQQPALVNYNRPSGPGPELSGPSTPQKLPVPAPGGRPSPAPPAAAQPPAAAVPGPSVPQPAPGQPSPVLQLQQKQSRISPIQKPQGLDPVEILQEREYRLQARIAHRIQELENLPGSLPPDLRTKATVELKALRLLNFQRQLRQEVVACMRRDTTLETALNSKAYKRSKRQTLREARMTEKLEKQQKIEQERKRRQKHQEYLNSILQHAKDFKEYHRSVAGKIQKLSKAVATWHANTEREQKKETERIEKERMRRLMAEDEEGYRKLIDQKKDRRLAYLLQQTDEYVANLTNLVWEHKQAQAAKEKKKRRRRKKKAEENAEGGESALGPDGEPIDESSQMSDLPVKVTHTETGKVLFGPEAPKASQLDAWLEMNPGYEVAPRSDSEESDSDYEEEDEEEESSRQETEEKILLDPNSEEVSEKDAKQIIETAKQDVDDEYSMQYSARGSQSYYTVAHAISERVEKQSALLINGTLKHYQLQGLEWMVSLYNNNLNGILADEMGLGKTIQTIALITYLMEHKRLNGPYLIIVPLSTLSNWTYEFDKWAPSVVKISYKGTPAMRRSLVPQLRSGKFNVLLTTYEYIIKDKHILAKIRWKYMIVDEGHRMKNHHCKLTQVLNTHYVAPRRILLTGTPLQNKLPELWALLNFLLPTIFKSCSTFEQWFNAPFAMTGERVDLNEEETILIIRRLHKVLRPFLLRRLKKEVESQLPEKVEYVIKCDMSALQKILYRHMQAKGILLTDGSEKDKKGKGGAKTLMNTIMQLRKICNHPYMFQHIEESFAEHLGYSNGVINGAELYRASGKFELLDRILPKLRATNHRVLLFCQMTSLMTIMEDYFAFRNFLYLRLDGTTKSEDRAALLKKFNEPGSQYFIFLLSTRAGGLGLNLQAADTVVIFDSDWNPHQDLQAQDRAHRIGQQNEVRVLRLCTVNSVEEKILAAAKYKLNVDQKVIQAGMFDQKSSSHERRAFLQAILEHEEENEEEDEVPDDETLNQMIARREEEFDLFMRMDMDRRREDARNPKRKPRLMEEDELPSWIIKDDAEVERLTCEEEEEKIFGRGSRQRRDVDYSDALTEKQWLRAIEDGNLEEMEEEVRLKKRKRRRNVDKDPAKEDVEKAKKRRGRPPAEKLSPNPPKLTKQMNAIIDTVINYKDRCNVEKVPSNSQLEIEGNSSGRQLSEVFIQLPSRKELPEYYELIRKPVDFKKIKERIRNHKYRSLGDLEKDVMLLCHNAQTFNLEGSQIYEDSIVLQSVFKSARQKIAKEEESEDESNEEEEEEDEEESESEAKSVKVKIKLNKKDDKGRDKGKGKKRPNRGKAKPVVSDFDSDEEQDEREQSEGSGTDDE

T1 sequence (P51532 whole entry): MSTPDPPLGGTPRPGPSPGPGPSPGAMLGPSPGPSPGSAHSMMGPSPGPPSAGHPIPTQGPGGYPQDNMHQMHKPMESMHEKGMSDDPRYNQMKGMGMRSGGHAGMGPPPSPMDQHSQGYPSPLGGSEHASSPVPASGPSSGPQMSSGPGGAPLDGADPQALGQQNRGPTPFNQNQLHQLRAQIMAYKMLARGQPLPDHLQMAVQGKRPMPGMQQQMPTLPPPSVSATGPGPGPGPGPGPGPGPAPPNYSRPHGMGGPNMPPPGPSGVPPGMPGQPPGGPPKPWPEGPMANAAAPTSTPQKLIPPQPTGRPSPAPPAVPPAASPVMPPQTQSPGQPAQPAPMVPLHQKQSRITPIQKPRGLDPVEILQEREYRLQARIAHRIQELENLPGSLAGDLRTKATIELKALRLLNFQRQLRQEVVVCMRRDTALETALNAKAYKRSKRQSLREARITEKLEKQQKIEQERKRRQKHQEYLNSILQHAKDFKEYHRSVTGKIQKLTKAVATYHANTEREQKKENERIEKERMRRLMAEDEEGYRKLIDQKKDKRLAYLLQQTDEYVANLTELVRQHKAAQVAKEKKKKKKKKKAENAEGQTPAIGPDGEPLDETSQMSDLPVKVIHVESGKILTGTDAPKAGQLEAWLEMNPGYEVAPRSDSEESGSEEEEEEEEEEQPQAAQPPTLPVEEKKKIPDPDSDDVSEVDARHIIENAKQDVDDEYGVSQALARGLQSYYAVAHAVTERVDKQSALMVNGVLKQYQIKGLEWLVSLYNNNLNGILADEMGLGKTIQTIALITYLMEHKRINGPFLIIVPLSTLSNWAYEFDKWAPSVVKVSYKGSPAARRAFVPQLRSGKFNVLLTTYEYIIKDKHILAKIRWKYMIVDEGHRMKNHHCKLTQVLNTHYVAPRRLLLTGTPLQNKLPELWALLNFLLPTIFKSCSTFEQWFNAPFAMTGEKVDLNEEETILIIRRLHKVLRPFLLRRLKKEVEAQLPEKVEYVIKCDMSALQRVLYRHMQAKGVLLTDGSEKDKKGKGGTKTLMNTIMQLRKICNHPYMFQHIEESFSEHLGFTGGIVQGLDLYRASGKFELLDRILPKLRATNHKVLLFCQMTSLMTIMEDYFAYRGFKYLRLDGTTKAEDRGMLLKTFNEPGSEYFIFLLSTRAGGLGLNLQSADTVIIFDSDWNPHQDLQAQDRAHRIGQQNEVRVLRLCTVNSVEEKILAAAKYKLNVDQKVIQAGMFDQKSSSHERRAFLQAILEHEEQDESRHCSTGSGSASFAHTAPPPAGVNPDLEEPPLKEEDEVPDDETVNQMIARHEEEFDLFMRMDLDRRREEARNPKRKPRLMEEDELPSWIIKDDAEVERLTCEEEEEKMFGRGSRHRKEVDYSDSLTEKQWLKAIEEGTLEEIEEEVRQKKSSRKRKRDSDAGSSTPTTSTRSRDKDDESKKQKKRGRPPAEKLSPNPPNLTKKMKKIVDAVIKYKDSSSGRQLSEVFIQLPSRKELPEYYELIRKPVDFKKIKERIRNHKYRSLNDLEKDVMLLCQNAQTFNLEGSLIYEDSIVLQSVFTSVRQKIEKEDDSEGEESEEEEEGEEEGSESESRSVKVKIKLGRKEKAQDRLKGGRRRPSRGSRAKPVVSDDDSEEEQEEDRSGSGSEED

| SMILES | IC50 [1] | IC50 [2] |
| --- | --- | --- |
| CO[C@@H]1CCCN(c2cccc(-c3csc(NC(=O)CNC(=O)c4ccn(C(C)(C)C)c4)n3)c2)C1 [Compound 97, (R)-1-(tert-butyl)-N-(2-((4-(3-(3-methoxypiperidin-1-yl)phenyl)thiazol-2-yl)amino)-2-oxoethyl)-1H-pyrrole-3-carboxamide] | > 0.1 µM | > 0.1 µM |
| CO[C@H]1CCCN(c2cccc(-c3csc(NC(=O)CNC(=O)c4ccn(C(C)(C)C)c4)n3)c2)C1 [Compound 98, (S)-1-(tert-butyl)-N-(2-((4-(3-(3-methoxypiperidin-1-yl)phenyl)thiazol-2-yl)amino)-2-oxoethyl)-1H-pyrrole-3-carboxamide] | > 0.01 µM | > 0.01 µM |
| CC(C)(C)n1ccc(C(=O)NCC(=O)Nc2nc(-c3cccc(N4CCOCC4)c3)cs2)c1 [Compound 100, 1-tert-butyl-N-[2-[[4-(3-morpholinophenyl)thiazol-2-yl]amino]-2-oxo-ethyl]pyrrole-3-carboxamide] | > 0.01 µM | > 0.01 µM |
| CC(C)(Oc1ccncc1)c1cccc(-c2csc(NC(=O)CNC(=O)c3ccn(S(C)(=O)=O)c3)n2)c1 [Compound 102, 1-(methylsulfonyl)-N-(2-oxo-2-((4-(3-(2-(pyridin-4-yloxy)propan-2-yl)phenyl)thiazol-2-yl)amino)ethyl)-1H-pyrrole-3-carboxamide] | > 0.1 µM | > 0.1 µM |
| CC(Oc1ccccc1)c1cccc(-c2csc(NC(=O)CNC(=O)c3ccn(S(C)(=O)=O)c3)n2)c1 (stereo not shown) [Compound 103, 1-(methylsulfonyl)-N-(2-oxo-2-((4-(3-(1-phenoxyethyl)phenyl)thiazol-2-yl)amino)ethyl)-1H-pyrrole-3-carboxamide] | > 0.1 µM | > 0.1 µM |
| CS(=O)(=O)n1ccc(C(=O)NCC(=O)Nc2nc(-c3cccc(COc4ccccc4)c3)cs2)c1 [Compound 104, 1-(methylsulfonyl)-N-(2-oxo-2-((4-(3-(phenoxymethyl)phenyl)thiazol-2-yl)amino)ethyl)-1H-pyrrole-3-carboxamide] | > 0.01 µM | > 0.01 µM |
| CS(=O)(=O)n1ccc(C(=O)NCC(=O)Nc2nc(-c3cccc(OCc4ccncc4)c3)cs2)c1 [Compound 106, 1-(methylsulfonyl)-N-(2-oxo-2-((4-(3-(pyridin-4-ylmethoxy)phenyl)thiazol-2-yl)amino)ethyl)-1H-pyrrole-3-carboxamide] | < 0.01 µM | < 0.01 µM |
| CS(=O)(=O)n1ccc(C(=O)NCC(=O)Nc2nc(-c3cccc(COc4ccccn4)c3)cs2)c1 [Compound 107, 1-(methylsulfonyl)-N-(2-oxo-2-((4-(3-((pyridin-2-yloxy)methyl)phenyl)thiazol-2-yl)amino)ethyl)-1H-pyrrole-3-carboxamide] | > 0.01 µM | > 0.01 µM |
| CS(=O)(=O)n1ccc(C(=O)NCC(=O)Nc2nc(-c3cccc(COc4ccncc4)c3)cs2)c1 [Compound 108, 1-(methylsulfonyl)-N-(2-oxo-2-((4-(3-((pyridin-4-yloxy)methyl)phenyl)thiazol-2-yl)amino)ethyl)-1H-pyrrole-3-carboxamide] | > 0.01 µM | < 0.01 µM |
| CN1Cc2ccc(-c3csc(NC(=O)CNC(=O)c4ccn(S(C)(=O)=O)c4)n3)cc2CC1=O [Compound 109, N-(2-((4-(2-methyl-3-oxo-1,2,3,4-tetrahydroisoquinolin-6-yl)thiazol-2-yl)amino)-2-oxoethyl)-1-(methylsulfonyl)-1H-pyrrole-3-carboxamide] | > 0.01 µM | > 0.01 µM |
| CS(=O)(=O)n1ccc(C(=O)NCC(=O)Nc2nc(C3CCCN(c4ccncc4)C3)cs2)c1 (stereo not shown) [Compound 111] | > 0.1 µM | > 0.1 µM |
| Cn1ccc2ccc(-c3csc(NC(=O)CNC(=O)c4ccn(S(C)(=O)=O)c4)n3)cc2c1=O [Compound 112, N-(2-((4-(2-methyl-1-oxo-1,2-dihydroisoquinolin-7-yl)thiazol-2-yl)amino)-2-oxoethyl)-1-(methylsulfonyl)-1H-pyrrole-3-carboxamide] | < 0.01 µM | < 0.01 µM |
| CS(=O)(=O)n1ccc(C(=O)NCC(=O)Nc2nc(-c3ccn(-c4ccncc4)n3)cs2)c1 [Compound 113, 1-(methylsulfonyl)-N-(2-oxo-2-((4-(1-(pyridin-4-yl)-1H-pyrazol-3-yl)thiazol-2-yl)amino)ethyl)-1H-pyrrole-3-carboxamide] | > 0.1 µM | > 0.1 µM |
| CN(C(=O)c1cccc(-c2csc(NC(=O)CNC(=O)c3ccn(S(C)(=O)=O)c3)n2)c1)c1ccccc1 [Compound 116, N-(2-((4-(3-(methyl(phenyl)carbamoyl)phenyl)thiazol-2-yl)amino)-2-oxoethyl)-1-(methylsulfonyl)-1H-pyrrole-3-carboxamide] | > 1 µM | > 1 µM |
| CS(=O)(=O)n1ccc(C(=O)NCC(=O)Nc2nc(-c3cccc(C(=O)Nc4ccncc4)c3)cs2)c1 [Compound 117, 1-(methylsulfonyl)-N-(2-oxo-2-((4-(3-(pyridin-4-ylcarbamoyl)phenyl)thiazol-2-yl)amino)ethyl)-1H-pyrrole-3-carboxamide] | > 0.01 µM | > 0.01 µM |
| CN1CC(OCc2cccc(-c3csc(NC(=O)CNC(=O)c4ccn(C(C)(C)C)c4)n3)c2)C1 [Compound 118, 1-(tert-butyl)-N-(2-((4-(3-(((1-methylazetidin-3-yl)oxy)methyl)phenyl)thiazol-2-yl)amino)-2-oxoethyl)-1H-pyrrole-3-carboxamide] | > 1 µM | > 1 µM |
| Cn1ccc(OCc2cccc(-c3csc(NC(=O)CNC(=O)c4ccn(C(C)(C)C)c4)n3)c2)n1 [Compound 119, 1-(tert-butyl)-N-(2-((4-(3-(((1-methyl-1H-pyrazol-3-yl)oxy)methyl)phenyl)thiazol-2-yl)amino)-2-oxoethyl)-1H-pyrrole-3-carboxamide] | > 0.1 µM | > 0.01 µM |

Further lines, results first:

| IC50 [1] | IC50 [2] | SMILES |
| --- | --- | --- |
| > 0.1 µM | > 0.01 µM | COCC1CCN(c2cccc(-c3csc(NC(=O)CNC(=O)c4ccn(S(C)(=O)=O)c4)n3)c2)CC1 [Compound 91, N-(2-((4-(3-(4-(methoxymethyl)piperidin-1-yl)phenyl)thiazol-2-yl)amino)-2-oxoethyl)-1-(methylsulfonyl)-1H-pyrrole-3-carboxamide] |
| > 0.01 µM | > 0.01 µM | COC[C@H]1CCCN(c2cccc(-c3csc(NC(=O)CNC(=O)c4ccn(S(C)(=O)=O)c4)n3)c2)C1 [Compound 92, (S)—N-(2-((4-(3-(3-(methoxymethyl)piperidin-1-yl)phenyl)thiazol-2-yl)amino)-2-oxoethyl)-1-(methylsulfonyl)-1H-pyrrole-3-carboxamide] |
| > 0.01 µM | > 0.01 µM | Cc1cn(-c2cccc(-c3csc(NC(=O)CNC(=O)c4ccn(S(C)(=O)=O)c4)n3)c2)cn1 [Compound 93, N-(2-((4-(3-(4-methyl-1H-imidazol-1-yl)phenyl)thiazol-2-yl)amino)-2-oxoethyl)-1-(methylsulfonyl)-1H-pyrrole-3-carboxamide] |
| < 0.01 µM | < 0.01 µM | CS(=O)(=O)n1ccc(C(=O)NCC(=O)Nc2nc(-c3cccc(N4CCC(O)CC4)c3)cs2)c1 [Compound 94, N-(2-((4-(3-(4-hydroxypiperidin-1-yl)phenyl)thiazol-2-yl)amino)-2-oxoethyl)-1-(methylsulfonyl)-1H-pyrrole-3-carboxamide] |
| > 0.01 µM | > 0.01 µM | COC1CCN(c2cccc(-c3csc(NC(=O)CNC(=O)c4ccn(S(C)(=O)=O)c4)n3)c2)CC1 [Compound 95, N-[2-[[4-[3-(4-methoxy-1-piperidyl)phenyl]thiazol-2-yl]amino]-2-oxo-ethyl]-1-methylsulfonyl-pyrrole-3-carboxamide] |
| > 0.1 µM | > 0.01 µM | COC1(C)CCN(c2cccc(-c3csc(NC(=O)CNC(=O)c4ccn(S(C)(=O)=O)c4)n3)c2)CC1 [Compound 96, N-(2-((4-(3-(4-methoxy-4-methylpiperidin-1-yl)phenyl)thiazol-2-yl)amino)-2-oxoethyl)-1-(methylsulfonyl)-1H-pyrrole-3-carboxamide] |
| > 0.01 µM | < 0.01 µM | CS(=O)(=O)n1ccc(C(=O)NCC(=O)Nc2nc(-c3cccc(N4CCOCC4)c3)cs2)c1 [Compound 99, 1-methylsulfonyl-N-[2-[[4-(3-morpholinophenyl)thiazol-2-yl]amino]-2-oxo-ethyl]pyrrole-3-carboxamide] |
| < 0.01 µM | < 0.01 µM | CS(=O)(=O)n1ccc(C(=O)NCC(=O)Nc2nc(-c3cccc(N4CC5(COC5)C4)c3)cs2)c1 [Compound 101, N-(2-((4-(3-(2-oxa-6-azaspiro[3.3]heptan-6-yl)phenyl)thiazol-2-yl)amino)-2-oxoethyl)-1-(methylsulfonyl)-1H-pyrrole-3-carboxamide] |
| < 0.01 µM | > 0.01 µM | CS(=O)(=O)n1ccc(C(=O)NCC(=O)Nc2nc(-c3cccc(CO[C@H]4CC[C@H](O)CC4)c3)cs2)c1 [Compound 105, N-(2-((4-(3-((((1R,4R)-4-hydroxycyclohexyl)oxy)methyl)phenyl)thiazol-2-yl)amino)-2-oxoethyl)-1-(methylsulfonyl)-1H-pyrrole-3-carboxamide] |
| > 0.01 µM | > 0.01 µM | CS(=O)(=O)n1ccc(C(=O)NCC(=O)Nc2nc(-c3cccc(OCC4COC4)c3)cs2)c1 [Compound 110, 1-(methylsulfonyl)-N-(2-((4-(3-(oxetan-3-ylmethoxy)phenyl)thiazol-2-yl)amino)-2-oxoethyl)-1H-pyrrole-3-carboxamide] |
| > 0.1 µM | > 0.1 µM | CS(=O)(=O)n1ccc(C(=O)NCC(=O)Nc2nc(-c3cccc(C4CCN(CC(F)(F)F)CC4)c3)cs2)c1 [Compound 114, 1-(methylsulfonyl)-N-(2-oxo-2-((4-(3-(1-(2,2,2-trifluoroethyl)piperidin-4-yl)phenyl)thiazol-2-yl)amino)ethyl)-1H-pyrrole-3-carboxamide] |
| > 0.1 µM | > 0.1 µM | Cc1nccn1-c1cccc(-c2csc(NC(=O)CNC(=O)c3ccn(S(C)(=O)=O)c3)n2)c1 [Compound 115, N-(2-((4-(3-(2-methyl-1H-imidazol-1-yl)phenyl)thiazol-2-yl)amino)-2-oxoethyl)-1-(methylsulfonyl)-1H-pyrrole-3-carboxamide] |
